Measured values as given in patent US12396964B2 (Shinkei Therapeutics, Inc., priority 2021, dated 2025).
Structures can show the parent of a compound that is named as a salt.

Key:
[1] = Applicants' finding on safety of the intravenous dose, volume and rate of administration
Method: As discussed above, the volume of fluid is not only critical in terms of increase in ICP, but it is also critical in terms of defining the time of administration of the dose, and therefore, the rate of administration of the dose. […] Each dose is administered over a period of 180 minutes, i.e. at a rate of about 1.39 ml/min.

[2] = Safety and tolerability study of amantadine hydrochloride IV solution 200 mg with plasma sampling in healthy adult subjects (Example 2); format: in vivo, human; conditions: 200 mg IV
Method: 4 mL venous blood was collected before dosing (0 hour) and at the following nominal times after dosing: 0.5, 1, 2, 3, 4, 5, 5.5, 6, 7, 9, 12, 16, 24, 36, 48 and 72 hours post-dose. Safety was assessed by qualified study staff by evaluating the following: reported adverse events, clinical laboratory test results, vital sign measurements, ECG findings, physical examination findings at screening and clinic exit (including body weight and height measurements), and concomitant medication usage. The blood samples collected were used to assess the decrease in concentration of amantadine in the plasma over time, and is tabulated in Table 3 below.

clinical = conditions: human, in vivo
Method: The subjects received the test treatments as described in Table 1 below, under direct observation following an overnight fast of at least 10 hours.
Plasma concentrations of amantadine increased rapidly and reached maximum plasma concentrations at around 3 hours after start of the IV infusion.
The plasma amantadine concentrations from healthy adults enrolled in the open-label, multiple-cohort, single-period non-randomized single-ascending dose study of Example 1 were used to determine the decrease in concentration of amantadine over time, after the administration of the first dose of 100 mg and 150 mg in different cohorts. The data is supportive in determining the timing of the second dose of amantadine.

half-life (clinical; both sexes, iv, T1/2): 11.4 h
Tmax (clinical; both sexes, iv, Tmax): 3 h
half-life (clinical; both sexes, iv, half-life (T½)): 11 to 15 h
Tmax (clinical; both sexes, iv, maximum plasma concentration (Tmax)): 3 to 4 h
half-life (clinical; both sexes, iv, mean elimination half-life): 11.5 to 14.5 h
increase of AUC0-28, more than proportional to the dose (clinical; both): ~3 fold
increase of Cmax, more than proportional to the dose (clinical; both): ~2.3 fold
Tmax (clinical; both, iv): 3.25 h
plasma levels remained detectable post-dose (clinical; both, iv, 3 h): 48 to 72 h
Compound: NC12CC3CC(CC(C3)C1)C2 [amantadine hydrochloride]
safety of the dose ([1]; about 100 mg to about 200 mg in a volume of 250 ml as a single dose, over 180 minutes, twice a day): safe
safety of the rate of administration ([1]; rate ranging between 0.5 mg/min to about 1.2 mg/min): safe
% decrease in plasma amantadine concentration ([2]; 0 hr after first dose): 0.0%
% decrease in plasma amantadine concentration ([2]; 1 hr after first dose): 14.0%
% decrease in plasma amantadine concentration ([2]; 2 hr after first dose): 20.9%
% decrease in plasma amantadine concentration ([2]; 2.5 hr after first dose): 24.5%
% decrease in plasma amantadine concentration ([2]; 3 hr after first dose): 26.2%
% decrease in plasma amantadine concentration ([2]; 4 hr after first dose): 30.0%
% decrease in plasma amantadine concentration ([2]; 6 hr after first dose): 34.5%
% decrease in plasma amantadine concentration ([2]; 9 hr after first dose): 48.3%
